From ChEMBL document CHEMBL4811222, “Antitumor Activity of Asperphenin B by Induction of Apoptosis and Regulation of Glyceraldehyde-3-phosphate Dehydrogenase in Human Colorectal Cancer Cells” (J Nat Prod, 2021)
Active and inactive are the calls of the source. The rule behind the calls is not given here.

What was measured:
RKO [1] = experiment: Antiproliferative activity against human RKO cells assessed as inhibition of cell growth incubated for 72 hrs by SRB assay; type: functional, cell-based
HCT-116 = experiment: Antiproliferative activity against human HCT-116 cells assessed as inhibition of cell growth incubated for 72 hrs by SRB assay; type: functional, cell-based; conditions: HCT-116, 72 h
SW480 = experiment: Antiproliferative activity against human SW480 cells assessed as inhibition of cell growth incubated for 72 hrs by SRB assay; type: functional, cell-based; conditions: SW480, 72 h
LS174T = experiment: Antiproliferative activity against human LS174T cells assessed as inhibition of cell growth incubated for 72 hrs by SRB assay; type: functional, cell-based
CCD-841CoN = experiment: Antiproliferative activity against human CCD-841CoN cells assessed as inhibition of cell growth incubated for 72 hrs by SRB assay; type: cell-based
CCD-18Co = experiment: Antiproliferative activity against human CCD-18Co cells assessed as inhibition of cell growth incubated for 72 hrs by SRB assay; type: cell-based
RKO [2] = experiment: Antitumor activity against human RKO cells implanted in BALB/c nude mouse assessed as inhibition of tumor growth at 4 mg/kg, ip administered three times per week for 21 days and measured every 3 to 4 days by electronic caliper method; type: functional; conditions: time 21.0 day
RKO [3] = experiment: Suppression of GAPDH protein expression in human RKO cells at 2.5 to 10 uM after 24 hrs by Western blotting analysis; type: functional, cell-based; conditions: dose 2.5-10 µM
RKO [4] = experiment: Antitumor activity against human RKO cells implanted in BALB/c nude mouse assessed as inhibition of tumor growth at 8 mg/kg, ip administered three times per week for 21 days and measured every 3 to 4 days by electronic caliper method; type: functional; conditions: time 21.0 day
RKO [5] = experiment: Antitumor activity against human RKO cells implanted in ip dosed BALB/c nude mouse assessed as suppression of GAPDH expression in tumor lysates administered three times per week for 21 days by Western blotting analysis; type: functional, organism-based; conditions: Neoplasm, time 21.0 day
RKO [6] = experiment: Antitumor activity against human RKO cells implanted in BALB/c nude mouse assessed as suppression of Ki67 expression level in tumor lysates at 4 to 8 mg/kg, ip administered three times per week for 21 days by Western blotting analysis; type: functional, organism-based; conditions: Neoplasm, dose 4-8 mg/kg, time 21.0 day

| IC50 (HCT-116) [µM] | IC50 (SW480) [µM] | SMILES | IC50 (RKO [1]) [µM] | IC50 (LS174T) [µM] | IC50 (CCD-841CoN) [µM] | IC50 (CCD-18Co) [µM] | TGI (RKO [2]) | Activity (RKO [3]) | TGI (RKO [4]) | Activity (RKO [5]) | Activity (RKO [6]) |
| --- | --- | --- | --- | --- | --- | --- | --- | --- | --- | --- | --- |
| > 50 | > 50 | CCCCCCCCC[C@@H](O)CC(=O)N[C@@H](CC(N)=O)C(=O)N[C@@H](CCC(N)=O)C(=O)N[C@@H](CC(C)C)C1=C(c2c(O)cccc2O)c2c(O)cc(C)cc2C1=O | > 50 | > 50 | > 50 | > 50 | inactive | inactive | inactive | inactive | inactive |
| 0.66 | 1.11 | COc1cc([C@@H]2c3cc4c(cc3[C@@H](O[C@@H]3O[C@@H]5CO[C@@H](C)O[C@H]5[C@H](O)[C@H]3O)[C@H]3COC(=O)[C@H]23)OCO4)cc(OC)c1O [ETOPOSIDE] | 1.96 | 0.48 | 8.71 | 18.4 | – | – | – | – | – |
